The structures appear in SMILES notation.

For orientation: Km means the concentration of substrate that gives half-maximal velocity. The IC50 is the concentration that gives 50% inhibition.

The test system of experiment [1] is PDE (Peak I). The experiment can be described thus: Substrate kinetics of PDE (Peak I) from cat heart. The class given is biochemical.
Experiment [2] relates to PDE (Peak II). The following applies: eluted at 0.3 M Na acetate.
Method: (§1) There were three major peaks which had the following characteristics:
(§2) The enzyme was assayed by incubation at 37° for 4-30 min in 50 mM Tris, 5 mM MgCl2, pH 7.5 with [3-H]cyclic nucleotide (4×10^5 disintegrations min^-1) and [14-C]nucleotide 5' monophosphate (3×10^3 disintegrations min^-1). […] The reaction mixture was diluted with 0.5 ml 100 mM HEPES (N-2-Hydroxyethyl-piperazine-N'-2-ethanesulfonic acid), 100 mM NaCl, pH 8.5, and applied to the column. […] The recovery of product as judged by [14-C]recovery was approximately 80%. All assays were linear with time of incubation and concentration of enzyme over the range used in these experiments.
Experiment [3] has as its system PDE (Peak III). As to conditions: eluted at 0.5 M Na acetate.
Method: as §1, §2
The subject of experiment [4] is guinea pig right ventricular strips. The experiment can be described thus: Cardiac stimulant activity in vitro: increase in force of contraction of electrically stimulated ventricular strips. The following applies: Cavia porcellus, read-out: EC50 (50% increase in the force of contraction of the ventricular strips); 37° C., stimulated at 1.0 Hz, cumulative concentration response. The procedure:
The compounds of formula (I) and their pharmaceutically acceptable salts are tested for cardiac stimulant activity following a procedure based on that of S.C. Verma and J. H. McNeill (J. Pharm & Exp. Therapeutics, 200, 352-362 (1977)). Guinea pigs (500-700 g) of either sex are sacrificed and the hearts are quickly removed and transferred to a dissecting dish containing oxygenated bathing fluid. While in the bathing medium, the right ventricle is cut into two strips. The strips are each suspended in a 50 ml bath containing Krebs Henseleit solution at 37° C., and the bath is bubbled with 95% oxygen and 5% carbon dioxide. The ventricular strips are electrically stimulated at a frequency of 1.0 Hz, at double the threshold voltage. A resting tension of 1.0 g is applied to the strips and the tension is kept constant by readjustment during an equilibration period of 60 minutes. The bathing fluid is frequently changed during this period. When a steady base line is obtained, a compound under test is added to the bathing fluid and a cumulative concentration response curve is plotted.

Experiment [5] has as its system left ventricular dp/dt max (left ventricular contractility). The experiment in a line: Cardiac stimulant activity in vivo: left ventricular dp/dt max in anaesthetised cats. As to conditions: anaesthetised cats pretreated with pempidine and propranolol, intravenous. Set-up: species or system cat.
Experiment [6] has as its system PDE (Peak III). The experiment in a line: Inhibition of PDE (Peak III) from cat heart. As to conditions: read-out: IC50 (50% inhibition of PDE (Peak III) activity); 1 μM cyclic AMP, 37°, pH 7.5. Type of experiment: biochemical.
Method: as §1, §2

As for `Nc1nc2c(ncn2[C@@H]2O[C@@H]3COP(=O)(O)O[C@H]3[C@H]2O)c(=O)[nH]1` [cyclic GMP], the “Relative Vmax” value was found to be 7.2 in experiment [1] (50 μg/ml calmodulin added), 1.1 in experiment [1] (without 50 μg/ml calmodulin), 0.2 in experiment [2] and 0.4 in experiment [3]. Moreover, the results for the Michaelis constant (Km) in experiment [2] and in experiment [3] were 28 µM and 2.9 µM, respectively.
With `CCC(=NC#N)Nc1ccc(C2=NNC(=O)CC2C)cc1` (centres unmarked) [Example 1, 6-[4-(N^2 -Cyanopropanimidamido)phenyl]-5-methyl-4,5-dihydro-3(2H)-pyridazinone], in experiment [4], the EC50 was found to be 65 nM. Also, the ED50 in experiment [5] (Felis catus, read-out: ED50 (dose to increase left ventricular dp/dt max by 50%)) turned out to be 0.02 µmol/kg. Moreover, the duration of activity result in experiment [5] was “long duration of activity”. For the same molecule, the half-inhibitory concentration (IC50) in experiment [6] is 80 nM.
As to `Nc1cc(-c2ccncc2)c[nH]c1=O` [Amrinone], the duration of activity entry in experiment [5] is given as “short duration of activity”.
